Data reported in publication PMC10973839, “CHF6297: a novel potent and selective p38 MAPK inhibitor with robust anti-inflammatory activity and suitable for inhaled pulmonary administration as dry powder” (Frontiers in Pharmacology, 2024).
Where two headings read alike, the source gives them in different places.

Legend:
human p38γ [1] = biological target: T1, human p38γ (Homo sapiens, UniProt P53778); assay: AlphaScreen kinase activity assay, human p38γ; assay type: biochemical
T1 construct: GST; purchased Invitrogen
T1 sequence (P53778 1-367): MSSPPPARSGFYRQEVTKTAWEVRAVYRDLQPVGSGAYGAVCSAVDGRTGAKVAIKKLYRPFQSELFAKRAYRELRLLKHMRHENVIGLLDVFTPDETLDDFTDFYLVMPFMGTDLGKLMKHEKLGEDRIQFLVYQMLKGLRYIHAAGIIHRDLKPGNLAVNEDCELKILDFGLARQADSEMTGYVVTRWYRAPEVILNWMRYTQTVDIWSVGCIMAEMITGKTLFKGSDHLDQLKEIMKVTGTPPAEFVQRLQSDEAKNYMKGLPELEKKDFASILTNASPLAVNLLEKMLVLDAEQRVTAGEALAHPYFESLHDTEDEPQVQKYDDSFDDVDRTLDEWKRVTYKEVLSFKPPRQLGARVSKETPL
Description: The inhibitory activity of CHF6297 was determined using an AlphaScreen® (PerkinElmer)-based kinase activity assay as previously described ([Armani et al., 2022]). Kinase reactions consisted of 25 mM 4-(2-hydroxyethyl)-1-piperazine ethanesulfonic acid (HEPES), pH 7.5; 10 mM MgCl2; 100 μM Na3VO4; 2 mM DTT; 0.05 mg/mL Tween^TM 20; 100 pM solution of p38α, p38β, p38δ, or p38γ (Invitrogen); 1% DMSO; and 0.3 μg/mL ATF-2 fusion protein (New England Biolabs). Compounds were incubated under these conditions for 2 h, at 25°C, prior to the initiation of kinase activity by the addition of 250 μM ATP. […] Detection was performed by measuring luminescence following the addition of AlphaScreen donor beads (PerkinElmer, 6765300) and Protein A AlphaScreen acceptor beads (PerkinElmer, 6760137), both at a final concentration of 20 μg/mL. IC50 values were determined from concentration–response curves. […]
CHF6297 was tested in biochemical enzymatic assays to determine its potency as an inhibitor of human p38α (MAPK14) and of the other human p38 isoforms, p38β (MAPK11), p38γ ([…]), and p38δ ([…]) ([Armani et al., 2022]). Activity in the primary screening assay was determined using AlphaScreen technology, in which a peptide (ATF2) is phosphorylated by the appropriate GST-tagged p38 protein isoform in the presence of CHF6297 at concentrations from semi-logarithmic dilutions. […]

human p38γ [2] = biological target: T1, human p38γ; assay: KINOMEscan competition binding assay (DiscoverX), p38γ; settings: read-out: Kd (mean ± s.d.)
Excerpt: (§1) The KINOMEscan® platform (DiscoverX) was used, which uses a novel and proprietary active site-directed competition binding assay to quantitatively measure the interactions between human p38 isoforms and the target compound.

human p38δ = biological target: T2, human p38δ (Homo sapiens, UniProt O15264); assay: KINOMEscan competition binding assay (DiscoverX), p38δ; settings: read-out: Kd (mean ± s.d.)
T2 construct: GST; purchased Invitrogen
T2 sequence (O15264 1-365): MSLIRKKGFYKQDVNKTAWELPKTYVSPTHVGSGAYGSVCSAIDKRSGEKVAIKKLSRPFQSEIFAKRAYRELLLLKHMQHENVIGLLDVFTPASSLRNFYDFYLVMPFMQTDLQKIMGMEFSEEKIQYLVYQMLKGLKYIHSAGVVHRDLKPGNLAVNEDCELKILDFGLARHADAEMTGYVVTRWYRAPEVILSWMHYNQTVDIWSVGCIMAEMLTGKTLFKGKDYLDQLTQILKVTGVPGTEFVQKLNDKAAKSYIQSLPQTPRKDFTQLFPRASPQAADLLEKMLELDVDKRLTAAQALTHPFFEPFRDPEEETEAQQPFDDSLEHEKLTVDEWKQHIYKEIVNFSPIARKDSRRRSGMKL
Excerpt: as §1

[3] = Inhalation pharmacokinetics in rats; assay type: in vivo, male Wistar rats; settings: for Lung Cmax: 30-min nose-only inhalation; for Plasma Tmax: IAD: immediately after dosing; for Lung Tmax: IAD: immediately after dosing (5 min after end of exposure); for half-life: lung, read-out: Lung t1/2 (converted); for Cmax / AUC(0-t): plasma; for AUC(0-t): read-out: Plasma AUClast
Description: Inhalation pharmacokinetics (PK) of CHF6297 as micronised dry powder blended with lactose 20% w/w was investigated in male Wistar rats at 2 dose levels (0.1 and 1 mg/kg) using the nose-only inhalation delivery system (Figure 8). For each PK study, 21 rats were placed in suitable plastic restrainers and connected to the inhalation tower. Inhalation system parameters were set to achieve a nominal dose of 0.1 mg/kg and 1 mg/kg in 30 min of exposure. The particle size and actual dose are given in Supplementary Material (Table 2). At the end of the inhalation period, the animals were returned to their cages. […] Then, lung samples were immediately excised, externally washed with cold saline, accurately weighed, homogenized using a temperature-controlled Precellys homogenizer (Bertin Technologies, France), and stored at −80 °C until analysis.
Plasma and lung samples were analyzed by using an HPLC-MS/MS system, consisting of a 4000 QTRAP mass spectrometer (AB Sciex LLC, Framingham, MA, United States) with an electrospray ionization (ESI) source, coupled to an Agilent 1100 HPLC (Agilent Technologies, Santa Clara, CA, United States). Analyte separation was performed using a Gemini C18 column (Phenomenex Inc., Torrance, CA, United States) and water with 0.1% v/v AcOH in the gradient with acetonitrile with 0.1% v/v AcOH as eluents. Sample preparation was performed by protein precipitation using preassembled filtration devices (Mini-UniPrep Syringeless Filters, 0.45 µm PTFE, Whatman, GE Healthcare, Buckinghamshire, United Kingdom). Aliquots of 50 μL of the sample (plasma or homogenate) were transferred to the bottom part of the device, spiked with 10 μL of the appropriate internal standard solution, and 150 μL of acetonitrile was added. The calibration and quality control samples were prepared by adding 10 µL of the CHF6297 working standard solution in acetonitrile to 50 µL of the blank matrix. After vortex mixing, the obtained mixture was filtered by manual compression of the device, and the filtered solution was diluted with 100 μL of water. The Mini-UniPrep devices were directly placed in the autosampler rack of the HPLC system. Pharmacokinetic evaluation and parameter determination (Cmax, Tmax, AUClast, and t1/2) were performed with Phoenix 64 software (Certara, New Jersey, United States) using non-compartmental analysis. Since the actual dose was within ±5% of the nominal one, the nominal dose was used for PK calculation.

[4] = male, Wistar, rat, inhaled or intranasal, 0.1 mg/kg
[5] = male, Wistar, rat, inhaled or intranasal, 1.0 mg/kg

With `C[C@H]1CCCCN1c1nnc2ccc(O[C@@H]3CC[C@H](NC(=O)Nc4cc(C(C)(C)C)nn4-c4cnn(CCN(C)C)c4)c4ccccc43)cn12` [CHF6297] the “IC50 fold-difference vs. human p38α” value (human p38γ [1]) was 6,750, the IC50 (human p38γ [1]; n = 3, read-out: IC50 (mean ± s.d.)) was 945 ± 58 nM and the Kd (human p38γ [2]) was greater than 1000 nM. The Kd (human p38δ) was greater than 1000 nM, the “Lung AUClast” value ([3]; 0.1 mg/kg) was 42,097 h*ng/g and the “Lung Cmax” value ([3]; 0.1 mg/kg) was 7,187 ng/g. For the same compound, the “Plasma Tmax” value ([3]; 0.1 mg/kg) was “IAD”, the “Lung Tmax” value ([3]; 0.1 mg/kg) was “IAD” and the “Lung Cmax” value ([3]; 1.0 mg/kg) was 54,000 ng/g. The “Plasma Tmax” value ([3]; 1.0 mg/kg) was “IAD”, the “Lung Tmax” value ([3]; 1.0 mg/kg) was “IAD” and the half-life [3, 4] was 10.2 h. It also gave a half-life [3, 5] of 10.2 h, a half-life ([3]; male, Wistar, rat, inhaled, 0.1 mg/kg) of 10 h and a half-life ([3]; male, Wistar, rat, inhaled, 1.0 mg/kg) of 10 h. The Kp ([3]; male, Wistar, rat, lung/plasma, inhaled, at the two dose levels (0.1 and 1 mg/kg), read-out: lung/plasma ratio (AUClast lung / AUClast plasma)) was roughly 6000, the Cmax [3, 4] was 2.77 ng/mL and the AUC(0-t) [3, 4] was 7.32 ng·h/mL. For the same compound, the Cmax [3, 5] was 20.6 ng/mL and the AUC(0-t) [3, 5] was 60.1 ng·h/mL.
